Laboratory results reported in PubChem BioAssay (NCI).
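Tested at 5 concentrations; 48 h exposure; 96-well plates; endpoints linearly interpolated, else capped at highest concentration. GI50 is the concentration that inhibits growth by half. The concentration for full growth arrest is given as TGI.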

How the values were obtained:
Assay in all cases: growth of human tumour cells (NCI), 48 h; in the data active = GI50 below about 0.43 µM; inactive = the rest
[1] = tested on: 786-0 renal
[2] = tested on: A498 renal
[3] = tested on: A549 NSCLC
[4] = tested on: ACHN renal
[5] = tested on: BT-549 breast
[6] = tested on: CAKI-1 renal
[7] = tested on: CCRF-CEM leukemia
[8] = tested on: COLO 205 colon
[9] = tested on: DU-145 prostate
[10] = tested on: EKVX NSCLC
[11] = tested on: HCC-2998 colon
[12] = tested on: HCT-116 colon
[13] = tested on: HCT-15 colon
[14] = tested on: HL-60(TB) leukemia
[15] = tested on: HOP-62 NSCLC
[16] = tested on: HOP-92 NSCLC
[17] = tested on: HS 578T breast
[18] = tested on: HT29 colon
[19] = tested on: IGROV1 ovarian
[20] = tested on: K-562 leukemia
[21] = tested on: KM12 colon
[22] = tested on: LOX IMVI melanoma
[23] = tested on: M14 melanoma
[24] = tested on: MALME-3M melanoma
[25] = tested on: MCF7 breast
[26] = tested on: MDA-MB-231 breast
[27] = tested on: MDA-MB-435
[28] = tested on: MOLT-4 leukemia
[29] = tested on: NCI-H226 lung
[30] = tested on: NCI-H23 lung
[31] = tested on: NCI-H460 lung
[32] = tested on: NCI-H522 lung
[33] = tested on: NCI/ADR-RES ovarian
[34] = tested on: OVCAR-3 ovarian
[35] = tested on: OVCAR-4 ovarian
[36] = tested on: OVCAR-5 ovarian
[37] = tested on: OVCAR-8 ovarian
[38] = tested on: PC-3 prostate
[39] = tested on: RPMI-8226 leukemia
[40] = tested on: SF-268 CNS
[41] = tested on: SF-295 CNS
[42] = tested on: SF-539 CNS
[43] = tested on: SK-MEL-2 melanoma
[44] = tested on: SK-MEL-28 melanoma
[45] = tested on: SK-MEL-5 melanoma
[46] = tested on: SK-OV-3 ovarian
[47] = tested on: SN12C renal
[48] = tested on: SNB-19 CNS
[49] = tested on: SNB-75 CNS
[50] = tested on: SR leukemia
[51] = tested on: SW-620 colon
[52] = tested on: T-47D breast
[53] = tested on: TK-10 renal
[54] = tested on: U251 CNS
[55] = tested on: UACC-257 melanoma
[56] = tested on: UACC-62 melanoma
[57] = tested on: UO-31 renal

O=C(CCCCCCNC(=O)C(O)(O)C(F)(F)F)Nc1ncc(-c2ccccc2)s1
5.61 µM: TGI [56]
15.6 µM: TGI [32]
inactive: GI50 [1] 3.8 µM | GI50 [2] 0.493 µM | GI50 [3] 5.96 µM | GI50 [4] 3.56 µM | GI50 [5] 2.47 µM | GI50 [6] 5.6 µM | GI50 [7] 2.93 µM | GI50 [8] 3.5 µM | GI50 [9] 5.26 µM | GI50 [10] 8.16 µM | GI50 [11] 4.71 µM | GI50 [12] 0.7 µM | GI50 [13] 3.99 µM | GI50 [14] 3.53 µM | GI50 [15] 4.93 µM | GI50 [16] 0.695 µM | GI50 [17] 2.62 µM | GI50 [18] 2.72 µM | GI50 [19] 3.23 µM | GI50 [20] 1.26 µM | GI50 [21] 4.51 µM | GI50 [22] 2.52 µM | GI50 [23] 5.32 µM | GI50 [24] 1.79 µM | GI50 [25] 7.19 µM | GI50 [26] 2.48 µM | GI50 [27] 4.45 µM | GI50 [28] 1.3 µM | GI50 [29] 5.58 µM | GI50 [30] 4.56 µM | GI50 [31] 2.57 µM | GI50 [32] 3.67 µM | GI50 [33] 4.27 µM | GI50 [34] 2.38 µM | GI50 [35] 11.1 µM | GI50 [36] 2.07 µM | GI50 [37] 2.9 µM | GI50 [38] 3.39 µM | GI50 [39] 1.96 µM | GI50 [40] 5.58 µM | GI50 [41] 3.49 µM | GI50 [42] 5.63 µM | GI50 [43] 3.64 µM | GI50 [44] 3.29 µM | GI50 [45] 3.46 µM | GI50 [46] 3.51 µM | GI50 [47] 3.75 µM | GI50 [48] 4.81 µM | GI50 [49] 1.33 µM | GI50 [50] 1.01 µM | GI50 [51] 2.4 µM | GI50 [52] 3.73 µM | GI50 [53] 0.679 µM | GI50 [54] 3.07 µM | GI50 [55] 4.91 µM | GI50 [56] 1.65 µM | GI50 [57] 3.72 µM
14.6 µM: TGI [43]
5.79 µM: TGI [22]
15.3 µM: TGI [4]
> 23.5 µM: TGI [1] | TGI [3] | TGI [6] | TGI [7] | TGI [9] | TGI [10] | TGI [12] | TGI [14] | TGI [15] | TGI [18] | TGI [20] | TGI [21] | TGI [23] | TGI [25] | TGI [27] | TGI [28] | TGI [29] | TGI [30] | TGI [31] | TGI [35] | TGI [37] | TGI [38] | TGI [39] | TGI [42] | TGI [44] | TGI [47] | TGI [49] | TGI [50] | TGI [52] | TGI [53] | TGI [55]
22 µM: TGI [48]
5.68 µM: TGI [2]
17.6 µM: TGI [46]
9.91 µM: TGI [51]
16.6 µM: TGI [5]
14 µM: TGI [57]
10.8 µM: TGI [54]
7.22 µM: TGI [45]
18.4 µM: TGI [17]
5.97 µM: TGI [34]
13.6 µM: TGI [36]
9.98 µM: TGI [19]
17.8 µM: TGI [40]
10.5 µM: TGI [8] | TGI [13]
8.88 µM: TGI [41]
14.2 µM: TGI [24]
4.26 µM: TGI [16]
13.5 µM: TGI [11]
17.1 µM: TGI [33]
14.9 µM: TGI [26]
